Data set [1] is described as follows: Comparative water solubility of precipitates (Example 4). The data set is classed as physicochemical. Particulars: 1 mg./ml. of drug.
Another data set in a line: physchem. The data set is classed as physicochemical. Particulars: water, drug alone, read-out: soluble in water.

Consider `CCCCCCCCCCCCCCCCNc1ccc(C(=O)[O-])cc1.[Na+]`, for which the “% p-Hexadecylaminobenzoic acid Sodium Salt in Solution, After 1 minute” value in data set [1] (1 minute) is recorded as 4%. Further, in data set [1] (30 minutes), the “% p-Hexadecylaminobenzoic acid Sodium Salt in Solution, After 30 minutes” value is on record as 2%. In the data set “physchem”, the solubility worked out at 1 µg/mL.

For the origin of these results see patent US4311694A, “Amorphous coprecipitates of 4-(monoalkylamino) benzoic acid and derivatives and certain water-soluble materials” (priority 1979, dated 1982).
